Laboratory results: patent US20190224347A1, “Detection of Renal Amyloidosis by Imaging with Stilbene or Phenylbenzothiazole Derivatives” (Mayo Foundation for Medical Education and Research, priority 2018, published 2019)

Biological target: T1, leucocyte cell-derived chemotaxin-2 (LECT2) amyloidosis (Homo sapiens, UniProt O14960)
T1 construct: biopsy-confirmed leucocyte cell-derived chemotaxin-2 (LECT2) amyloidosis underwent a positron emission tomography/computed tomography (PET/CT) scan with florbetapir; from tissue; host or cells: Living patient: amyloid deposits in lungs, spleen, adrenal glands, kidneys and bone marrow
T1 sequence (O14960 19-151): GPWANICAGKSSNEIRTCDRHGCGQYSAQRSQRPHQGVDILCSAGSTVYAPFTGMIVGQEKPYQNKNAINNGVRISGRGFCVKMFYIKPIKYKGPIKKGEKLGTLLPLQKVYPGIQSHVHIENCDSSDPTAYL
Assay: PET/CT scan with florbetapir 18F in a patient with biopsy-confirmed LECT2 amyloidosis
Assay type: in vivo
Description: Administration to the subject of a pharmaceutical composition including a radiolabeled stilbene derivative or phenylbenzothiazole derivative chosen from the compounds of Formulas (I) to (VII) above for in vivo detection of the accumulated compound in LECT2-based protein structures can be accomplished intravenously, intraarterially, intrathecally, intramuscularly, intradermally, subcutaneously, or intracavitary. Dosage can vary. In one non-limiting example, dosage may vary from 0.001 μg/kg to 10 μg/kg. In another non-limiting example, the dose for florbetapir may be 370 MBq (10 mCi), maximum 50 μg mass dose, administered as a single intravenous bolus in a total volume of 10 mL or less. The injection may be followed with an intravenous flush of 0.9% sterile sodium chloride. In the method of the invention, sufficient time is allowed after administration such that the radiolabeled stilbene derivative or phenylbenzothiazole derivative can accumulate in any LECT2-based protein structures.
A person with end stage renal disease on haemodialysis secondary to biopsy-confirmed leucocyte cell-derived chemotaxin-2 (LECT2) amyloidosis underwent a positron emission tomography/computed tomography (PET/CT) scan with florbetapir ^18F. […] These organs normally have low activity on florbetapir PET/CT. The activity pattern is consistent with pathological data on the distribution of amyloidosis in this disease. […] A remarkable finding in this patient is the uptake in the kidney because they make little urine and is on chronic haemodialysis.

CNc1ccc(/C=C/c2ccc(OCCOCCOCC[18F])nc2)cc1 [florbetapir ^18F]
PET/CT activity in bone marrow (PET/CT, same patient, bone marrow): diffuse intense activity above normal background
PET/CT activity in the heart (PET/CT, same patient, heart): normal background activity
accumulation in LECT2-based protein structures (positron emission tomography): accumulates within LECT2-based protein structures
